Test results taken from patent US20120094939A1, “ANTI-VIRAL COMPOUNDS, COMPOSITIONS AND METHODS” (priority 2007, published 2012).

Tested on: OR6 cells
Experiment: Secondary assay cell viability (CellTiter-Glo)
Conditions: 48 hours
Experimental: Secondary Assays-Hit Validation. Several hits from primary HTS, as well as functionally related compounds, were purchased from Sigma (St. Louis, Mo.), Calbiochem (San Diego, Calif.), and Microsource (Gaylordsville, Conn.). […] Ten mM of stock solutions of the individual compounds to be tested was prepared in the appropriate solvent (DMSO, ethanol, or H2O, according to the manufacturer's information) and stored at −20° C. Cells were seeded into 96-well plates at a density of 2000 cells/well in 100 μL of medium. The cells were incubated for 24 hours at 37° C. to obtain the optimal level of adherence. Solutions of candidate hit compounds were added to wells to achieve final concentrations of 0.1, 1, 10, 50, and 100 μM. The final concentration of DMSO or ethanol in every well was 1% or less by volume. Mock solutions were used as a negative control. PEG-IFN and ribavirin were used as positive controls at various concentrations, alone and in combination. The plates were then incubated at 37° C. with 5% CO2 for 48 hours before they were analyzed. Luminescent signal was generated using the Renilla luciferase assay kit (Promega) according to the manufacturer's instructions. Signal was then detected using a LumiCount (Packard BioScience Company) luminometer. Cell viability was assessed using CellTiter-Glo (Promega), following the manufacturer's instructions. All experiments were performed in triplicate.
Secondary Assays-Data Analysis. Values were presented as a percentage of mock treated control, which was arbitrarily set at 100%. Data were expressed as the mean (±) SD. […] Synergy calculations were performed using CalcuSyn (Biosoft; Cambridge, England).
Secondary Assays—Hit Validation: 10 mM of stock solutions of the individual compounds to be tested were prepared in DMSO and stored at −20° C. Cells were seeded into 96-well plates at a density of 2,000 cells/well in 100 μl of medium. The cells were incubated for 24 hours at 37° C. to obtain the optimal level of adherence. Solutions of candidate hit compounds were added to wells to achieve varying final concentrations between 0.01 and 100 μM. The final concentration of DMSO or ethanol in every well was 1% or less by volume. Mock solutions were used as a negative control. Peginterferon-alfa-2b (PEG-Intron; Schering Corp.; Kenilworth, N.J.) and ribavirin (Sigma; St. Louis, Mo.) were used as positive controls at various concentrations, alone and in combination. The plates were then incubated at 37° C. with 5% CO2 for 48 hours before they were analyzed. Luminescent signal was generated using the Renilla luciferase assay kit (Promega; Madison, Wis.) according to the manufacturer's instructions. Signal was then detected using a LumiCount™ (Packard BioScience Company; Downers Grove, Ill.) luminometer. Cell viability was assessed using CellTiter-Glo (Promega; Madison, Wis.), following the manufacturer's instructions. All experiments were performed in triplicate. Values were presented as a percentage of mock treated control, which was arbitrarily set at 100%. Data were expressed as the mean±SD.
Secondary Assays—Data Analysis: Values were presented as a percentage of mock treated control, which was arbitrarily set at 100%. Data were expressed as the mean±SD.

Row | Compound | concentrations at which cytotoxic effects were exhibited | concentrations with no significant/observed cytotoxicity | also measured
1 | Cc1cc2c(nc1C)CCCN2CC(C)O/N=C1/[C@H]2CCn3c(=O)n(-c4ccccc4)c(=O)n3[C@H]2[C@H](O)[C@@H]2O[C@H]12 (some centres unmarked) [BUCMLD-B10A5] | ≥ 30 µM |  | 
2 | COc1cc2c(cc1OC)-c1c/c(=N\c3c(C)cc(C)cc3C)n(C)c(=O)n1CC2 [trequinsin, reference compound] |  |  | cytotoxicity (in words): significant cytotoxicity only at the higher concentrations of 50 and 100 μM
3 | CC(=O)OC[C@H]1O[C@H](CCO/N=C2/[C@H]3CCn4c(=O)n(-c5ccccc5)c(=O)n4[C@H]3[C@H](O)[C@@H]3O[C@H]23)C=C[C@@H]1OC(C)=O [BUCMLD-B10A3] | above 7 μM |  | 
4 | O=C1C2(CO)C=C(Br)C(CC2c2ccccc2)[C@@]12CO2 (some centres unmarked) [SM_A6B5_2P100] |  | ≤ 30 µM | 
5 | Cc1cc(C)c(-c2cc([C@H](C)O/N=C3/[C@H]4CCn5c(=O)n(-c6ccccc6)c(=O)n5[C@H]4[C@H](O)[C@@H]4O[C@H]34)on2)c(C)c1 [BUCMLD-B10A11] |  | ≤ 10 µM | 
